According to PMC7913927, “Leishmanicidal Activity of Betulin Derivatives in Leishmania amazonensis; Effect on Plasma and Mitochondrial Membrane Potential, and Macrophage Nitric Oxide and Superoxide Production” (Microorganisms, 2021):
Where “and” joins values, the source holds several entries; their conditions need not be identical. Identical values can stand only once. Entries after “also recorded” stand apart in the source; their conditions may differ. Like-named read-outs stand apart in the source and are kept apart here.

What was measured:
[1] = tested on: L. (L.) donovani axenic amastigotes; details: cited from earlier work
[2] = tested on: J774.1 macrophages, healthy or infected with LTB0016, VE98MR or VE2000MM; experiment: Superoxide (O2−) production, ferricytochrome c reduction; type: cell-based, murine; details: LTB0016- and VE98MR-infected macrophages; 48 h; 18: 1 and 2 µM
Experimental: The intracellular oxidative burst was evaluated by the production of the superoxide anion O2^−, using the method of reduction of ferricytochrome c, previously described. Macrophages from preceding experiments were used after removing the supernatant; the cells pretreated with compounds or AmB as positive control of the experiment were resuspended in 100 µL of Hanks saline (HBSS: 137 mM NaCl, 5.4 mM KCl, 1 mM MgSO4⋅7H2O, 1.3 mM CaCl2⋅H2O, 0.3 mM Na2HPO4, 0.44 mM KH2PO4, 4.2 mM NaHCO3, 5 mM glucose, pH 7.2) and incubated for 1 h in the presence of 2 mg mL^−1 (160 µM) of cytochrome c type III, at 37 °C and 5% CO2. The supernatant was saved to measure the change in optical density at 550 nm. Three independent experiments were performed in duplicate. The superoxide anion concentration was calculated using the reduced molar extinction coefficient of cytochrome c, 21 mM^−1 cm^−1. Therefore, [O2^−] = (ΔOD/6.3) × 100, where ΔOD is the variation of the optical density (reading-blank), and the result obtained corresponds to the concentration of superoxide anion expressed in nanomoles of O2^− released/2 × 10^5 cells. MLF (5 µM) and amphotericin-B (AmB, 0.1 µM), known to induce NO production in macrophages, were included as controls.

[3] = tested on: VE98MR intracellular amastigotes in J774.1 macrophages; experiment: Macrophage-amastigote model, patient isolate VE98MR; type: cell-based, Leishmania amazonensis; details: for Regresion (GraphPad 6) of %Control vs dose (50% inhibitory concentration) / Growth (%) Exp1 %Control / Growth (%) Exp1 A/100MØ / Growth (%) Exp1 A/MØ / Growth (%) Exp1 Infección / Growth (%) Exp2 %Control / Growth (%) Exp2 A/100MØ / Growth (%) Exp2 A/MØ / Growth (%) Exp2 Infección / Growth (%) Exp3 %Control / Growth (%) Exp3 A/100MØ / Growth (%) Exp3 A/MØ / Growth (%) Exp3 Infección / Average A/100MØ: VE98MR; for Regresion (GraphPad 6) of %Control vs dose (50% inhibitory concentration): unit from Dose head; for Average A/100MØ: average of Exp1-3
Experimental: We used a previously described methodology, with some modifications. Macrophage monolayers, grown in RMPIc medium, for 3 days, were detached from the bottom of the culture chamber, by physical treatment (low temperature and light strokes). Obtained macrophages were seeded in flat-bottom 96-well culture plates, at a density of 2 × 10^5 cells mL^−1 (40,000 macrophages/well), in a final volume of 200 µL. Plates were incubated for 2 h, and the supernatant was discarded to remove non-adhered macrophages. Medium was replaced with stationary-phase promastigotes suspended in 200 µL of RPMIc (2 × 10^6 parasites mL^−1, 400,000 parasites/well), at a macrophage: parasite ratio 1:10 [40]. The plates were incubated for 4 h. Afterwards the medium was replaced with fresh RPMIc and increasing concentrations of compounds or drugs tested were applied, in volumes of 2 µL, according to the different treatment groups. Plates were kept for 72 h, at 37 °C and 5% CO2. The medium was discarded and the wells were washed twice with PBS. Next, a Giemsa staining was performed in situ. It consisted of adding 200 µL of methanol/well, incubating for 5 min, discarding the fixative, and letting it dry at room temperature. Later, the Giemsa solution (10% in PBS w/v, 200 µL/well) was added, incubated for 10 min, and washed with PBS, allowing it to dry. Finally, the bottom of the plates was detached by percussion and the circular bottoms (wells) were fixed to slides with Permount synthetic resin, for later evaluation (Alcazar W., manuscript in preparation). Cell counting was performed with a 100× immersion objective. A minimum of 200 random macrophages were examined. The percentage of infected macrophages (% infection) and the average number of amastigotes present in infected macrophages (amastigotes) were determined. […] The infection rate represents the number of intracellular amastigotes per 100 macrophages evaluated. Additionally, the GI50 for the decrease in the infection rate was calculated. At least three independent experiments were performed. The effect of amphotericin-B (AmB) [Sigma-Aldrich, (St. Louis, MO, USA)] was included as positive control of the assay.

In the case of `C=C(C)C1CCC2(C=NO)CCC3(C)C(CCC4C5(C)CCC(=NO)C(C)(C)C5CCC43C)C12` (stereo not drawn) [Compound 18], the GI50 [1] is listed as 22800 nM, the “Superoxide production, infected macrophages” value [2] is listed as “induced superoxide production in infected macrophages; also recorded: inducing an oxidative burst and thus increasing O2^− production” and the “SI (CC50/GI50) VE98MR” value ([3]; J774.1 CC50 / intracellular amastigote GI50, Table 2) is listed as 27.32. It also gave a GI50 ([3]; VE98MR intracellular amastigotes, read-out: GI50 (µM) Experiment 1 Regresion) of 0.65 µM, a GI50 ([3]; VE98MR intracellular amastigotes, read-out: GI50 (µM) Experiment 2 Regresion) of 1.09 µM and a GI50 ([3]; VE98MR intracellular amastigotes, read-out: GI50 (µM) Experiment 3 Regresion) of 0.89 µM. For the same molecule, the “Regresion (GraphPad 6) of %Control vs dose (50% inhibitory concentration)” value (shortened to “Regresion … (50% inhibitory concentration)”) ([3]; Exp1) was 0.65 µM, the “Regresion … (50% inhibitory concentration)” value ([3]; Exp2) was 1.09 µM and the “Regresion … (50% inhibitory concentration)” value ([3]; Exp3) was 0.89 µM. The “Growth (%) Exp1 %Control” value ([3]; dose 0.10 µM, Exp1) was 72.90%, the “Growth (%) Exp1 A/100MØ” value ([3]; dose 0.10 µM, Exp1) was 117.33 and the “Growth (%) Exp1 A/MØ” value ([3]; dose 0.10 µM, Exp1) was 2.20. The “Growth (%) Exp1 Infección” value ([3]; dose 0.10 µM, Exp1) was 53.33%, the “Growth (%) Exp2 %Control” value ([3]; dose 0.10 µM, Exp2) was 77.33% and the “Growth (%) Exp2 A/100MØ” value ([3]; dose 0.10 µM, Exp2) was 159.61. The “Growth (%) Exp2 A/MØ” value ([3]; dose 0.10 µM, Exp2) was 2.67, the “Growth (%) Exp2 Infección” value ([3]; dose 0.10 µM, Exp2) was 59.78% and the “Growth (%) Exp3 %Control” value ([3]; dose 0.10 µM, Exp3) was 82.84%. For the same molecule, the “Growth (%) Exp3 A/100MØ” value ([3]; dose 0.10 µM, Exp3) was 205.27, the “Growth (%) Exp3 A/MØ” value ([3]; dose 0.10 µM, Exp3) was 3.68 and the “Growth (%) Exp3 Infección” value ([3]; dose 0.10 µM, Exp3) was 55.78%. For the same molecule, the “Average A/100MØ” value ([3]; dose 0.10 µM) was 160.74, the “Growth (%) Exp1 %Control” value ([3]; dose 0.50 µM, Exp1) was 57.32% and the “Growth (%) Exp1 A/100MØ” value ([3]; dose 0.50 µM, Exp1) was 92.25. The “Growth (%) Exp1 A/MØ” value ([3]; dose 0.50 µM, Exp1) was 2.05, the “Growth (%) Exp1 Infección” value ([3]; dose 0.50 µM, Exp1) was 45.00% and the “Growth (%) Exp2 %Control” value ([3]; dose 0.50 µM, Exp2) was 61.05%. The “Growth (%) Exp2 A/100MØ” value ([3]; dose 0.50 µM, Exp2) was 125.99, the “Growth (%) Exp2 A/MØ” value ([3]; dose 0.50 µM, Exp2) was 2.20 and the “Growth (%) Exp2 Infección” value ([3]; dose 0.50 µM, Exp2) was 57.27%. The “Growth (%) Exp3 %Control” value ([3]; dose 0.50 µM, Exp3) was 73.43%, the “Growth (%) Exp3 A/100MØ” value ([3]; dose 0.50 µM, Exp3) was 181.96 and the “Growth (%) Exp3 A/MØ” value ([3]; dose 0.50 µM, Exp3) was 3.24. For the same molecule, the “Growth (%) Exp3 Infección” value ([3]; dose 0.50 µM, Exp3) was 56.16%, the “Average A/100MØ” value ([3]; dose 0.50 µM) was 133.40 and the “Growth (%) Exp1 %Control” value ([3]; dose 1.00 µM, Exp1) was 48.73%. The “Growth (%) Exp1 A/100MØ” value ([3]; dose 1.00 µM, Exp1) was 78.42, the “Growth (%) Exp1 A/MØ” value ([3]; dose 1.00 µM, Exp1) was 2.26 and the “Growth (%) Exp1 Infección” value ([3]; dose 1.00 µM, Exp1) was 34.70%. The “Growth (%) Exp2 %Control” value ([3]; dose 1.00 µM, Exp2) was 59.91%, the “Growth (%) Exp2 A/100MØ” value ([3]; dose 1.00 µM, Exp2) was 123.65 and the “Growth (%) Exp2 A/MØ” value ([3]; dose 1.00 µM, Exp2) was 2.80. The “Growth (%) Exp2 Infección” value ([3]; dose 1.00 µM, Exp2) was 44.16%, the “Growth (%) Exp3 %Control” value ([3]; dose 1.00 µM, Exp3) was 42.96% and the “Growth (%) Exp3 A/100MØ” value ([3]; dose 1.00 µM, Exp3) was 106.46. For the same molecule, the “Growth (%) Exp3 A/MØ” value ([3]; dose 1.00 µM, Exp3) was 2.36, the “Growth (%) Exp3 Infección” value ([3]; dose 1.00 µM, Exp3) was 45.11% and the “Average A/100MØ” value ([3]; dose 1.00 µM) was 102.84. The “Growth (%) Exp1 %Control” value ([3]; dose 5.00 µM, Exp1) was 16.08%, the “Growth (%) Exp1 A/100MØ” value ([3]; dose 5.00 µM, Exp1) was 25.87 and the “Growth (%) Exp1 A/MØ” value ([3]; dose 5.00 µM, Exp1) was 1.60. For the same molecule, the “Growth (%) Exp1 Infección” value ([3]; dose 5.00 µM, Exp1) was 16.17%, the “Growth (%) Exp2 %Control” value ([3]; dose 5.00 µM, Exp2) was 28.34% and the “Growth (%) Exp2 A/100MØ” value ([3]; dose 5.00 µM, Exp2) was 58.49. For the same molecule, the “Growth (%) Exp2 A/MØ” value ([3]; dose 5.00 µM, Exp2) was 2.35, the “Growth (%) Exp2 Infección” value ([3]; dose 5.00 µM, Exp2) was 24.89% and the “Growth (%) Exp3 %Control” value ([3]; dose 5.00 µM, Exp3) was 8.53%. For the same molecule, the “Growth (%) Exp3 A/100MØ” value ([3]; dose 5.00 µM, Exp3) was 21.14, the “Growth (%) Exp3 A/MØ” value ([3]; dose 5.00 µM, Exp3) was 1.13 and the “Growth (%) Exp3 Infección” value ([3]; dose 5.00 µM, Exp3) was 18.71%. The “Average A/100MØ” value ([3]; dose 5.00 µM) was 35.17, the “Growth (%) Exp1 %Control” value ([3]; dose 10.00 µM, Exp1) was 3.99% and the “Growth (%) Exp1 A/100MØ” value ([3]; dose 10.00 µM, Exp1) was 6.42. For the same molecule, the “Growth (%) Exp1 A/MØ” value ([3]; dose 10.00 µM, Exp1) was 1.33, the “Growth (%) Exp1 Infección” value ([3]; dose 10.00 µM, Exp1) was 4.83% and the “Growth (%) Exp2 %Control” value ([3]; dose 10.00 µM, Exp2) was 9.85%. For the same molecule, the “Growth (%) Exp2 A/100MØ” value ([3]; dose 10.00 µM, Exp2) was 20.33, the “Growth (%) Exp2 A/MØ” value ([3]; dose 10.00 µM, Exp2) was 1.50 and the “Growth (%) Exp2 Infección” value ([3]; dose 10.00 µM, Exp2) was 13.55%. The “Growth (%) Exp3 %Control” value ([3]; dose 10.00 µM, Exp3) was 11.25%, the “Growth (%) Exp3 A/100MØ” value ([3]; dose 10.00 µM, Exp3) was 27.88 and the “Growth (%) Exp3 A/MØ” value ([3]; dose 10.00 µM, Exp3) was 1.35. For the same molecule, the “Growth (%) Exp3 Infección” value ([3]; dose 10.00 µM, Exp3) was 20.65%, the “Average A/100MØ” value ([3]; dose 10.00 µM) was 18.21 and the GI50 ([3]; intracellular amastigotes, Supplementary Materials II, read-out: GI50 (µM) VE98MR, mean of three experiments) was 0.877 µM and 0.88 µM.
